# Test results from PubChem BioAssay AID328 (DTP/NCI, 2004).
# Where “and” joins values, the source holds several entries; their conditions need not be identical. Identical values can stand only once. Inconclusive results and toxic doses are left out. Residues, ends and D or L forms follow the SMILES beside them. *: point of attachment. Cbz = O=C(OCc1ccccc1)*
# Test system: BDF1 mice, P388 leukemia ip, median survival T/C
# Experiment: NCI In Vivo Anticancer Drug Screen. Data for tumor model P388 Leukemia (intraperitoneal) in B6D2F1 (BDF1) mice
# Conditions: endpoint: median survival time, higher = longer survival
# In short: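 Steps: implant the tumour, treat one group with compound and another with vehicle, record survival, then divide treated by control.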
# [1] = dose: 100.0 mg/kg/injection, schedule: Q04DX003 (ip), vehicle: saline
# [2] = dose: 50.0 mg/kg/injection, schedule: Q01DX009 (ip), vehicle: saline with Tween-80
# [3] = dose: 100.0 mg/kg/injection, schedule: Q01DX009 (ip), vehicle: saline with Tween-80
# [4] = dose: 200.0 mg/kg/injection, schedule: Q01DX009 (ip), vehicle: saline with Tween-80
# [5] = dose: 12.5 mg/kg/injection, schedule: Q04DX003 (ip), vehicle: Klucel (hydroxypropylcellulose) (HPC)
# [6] = dose: 50.0 mg/kg/injection, schedule: Q04DX003 (ip), vehicle: saline with Tween-80
# [7] = dose: 100.0 mg/kg/injection, schedule: Q04DX003 (ip), vehicle: saline with Tween-80
# [8] = dose: 100.0 mg/kg/injection, schedule: Q04DX003 (ip), vehicle: Klucel (hydroxypropylcellulose) (HPC)
# [9] = dose: 200.0 mg/kg/injection, schedule: Q04DX003 (ip), vehicle: Klucel (hydroxypropylcellulose) (HPC)
# [10] = dose: 200.0 mg/kg/injection, schedule: Q04DX003 (ip), vehicle: saline with Tween-80
# [11] = dose: 400.0 mg/kg/injection, schedule: Q01DX009 (ip), vehicle: saline with Tween-80
# [12] = dose: 400.0 mg/kg/injection, schedule: Q04DX003 (ip), vehicle: Klucel (hydroxypropylcellulose) (HPC)
# [13] = dose: 400.0 mg/kg/injection, schedule: Q04DX003 (ip), vehicle: saline with Tween-80
structure (smiles),measurement,setting,value
O=S(O)OS(=O)O,T/C,"dose: 90.0 mg/kg/injection, schedule: Q01DX009 (ip), vehicle: saline",105 % of control
same,T/C,"dose: 100.0 mg/kg/injection, schedule: Q01DX009 (ip), vehicle: saline",100 % of control
same,T/C,[1],96 % of control
same,T/C,"dose: 133.0 mg/kg/injection, schedule: Q01DX009 (ip), vehicle: saline",95 % of control and 100 % of control
same,T/C,"dose: 200.0 mg/kg/injection, schedule: Q01DX009 (ip), vehicle: saline",100 % of control and 116 % of control
same,T/C,"dose: 200.0 mg/kg/injection, schedule: Q04DX003 (ip), vehicle: saline",92 % of control
same,T/C,"dose: 400.0 mg/kg/injection, schedule: Q01DX009 (ip), vehicle: saline",104 % of control
same,T/C,"dose: 400.0 mg/kg/injection, schedule: Q04DX003 (ip), vehicle: saline",96 % of control
Nc1ncncc1-c1cccc2ccccc12,T/C,[2],108 % of control
same,T/C,[3],99 % of control
same,T/C,[4],108 % of control
CCOC(=O)Cc1c[nH]c2ccc(N(CCCl)CCCl)cc12,T/C,"dose: 0.11 mg/kg/injection, schedule: Q04DX003 (ip), vehicle: Klucel (hydroxypropylcellulose) (HPC)",116 % of control
same,T/C,"dose: 0.17 mg/kg/injection, schedule: Q04DX003 (ip), vehicle: Klucel (hydroxypropylcellulose) (HPC)",120 % of control
same,T/C,"dose: 0.26 mg/kg/injection, schedule: Q04DX003 (ip), vehicle: Klucel (hydroxypropylcellulose) (HPC)",100 % of control
same,T/C,"dose: 0.5 mg/kg/injection, schedule: Q01DX009 (ip), vehicle: Klucel (hydroxypropylcellulose) (HPC)",154 % of control
same,T/C,"dose: 0.8 mg/kg/injection, schedule: Q01DX009 (ip), vehicle: Klucel (hydroxypropylcellulose) (HPC)",175 % of control
same,T/C,"dose: 0.9 mg/kg/injection, schedule: Q04DX003 (ip), vehicle: Klucel (hydroxypropylcellulose) (HPC)",154 % of control
same,T/C,"dose: 1.3 mg/kg/injection, schedule: Q01DX009 (ip), vehicle: Klucel (hydroxypropylcellulose) (HPC)",250 % of control
same,T/C,"dose: 1.4 mg/kg/injection, schedule: Q04DX003 (ip), vehicle: Klucel (hydroxypropylcellulose) (HPC)",163 % of control
same,T/C,"dose: 2.0 mg/kg/injection, schedule: Q01DX009 (ip), vehicle: Klucel (hydroxypropylcellulose) (HPC)",272 % of control
same,T/C,"dose: 2.2 mg/kg/injection, schedule: Q04DX003 (ip), vehicle: Klucel (hydroxypropylcellulose) (HPC)",204 % of control
same,T/C,"dose: 3.0 mg/kg/injection, schedule: Q01DX009 (ip), vehicle: Klucel (hydroxypropylcellulose) (HPC)",230 % of control and 272 % of control
same,T/C,"dose: 3.3 mg/kg/injection, schedule: Q04DX003 (ip), vehicle: Klucel (hydroxypropylcellulose) (HPC)",222 % of control
same,T/C,"dose: 4.5 mg/kg/injection, schedule: Q01DX009 (ip), vehicle: Klucel (hydroxypropylcellulose) (HPC)",154 % of control
same,T/C,"dose: 5.0 mg/kg/injection, schedule: Q04DX003 (ip), vehicle: Klucel (hydroxypropylcellulose) (HPC)",245 % of control and 272 % of control
same,T/C,"dose: 6.0 mg/kg/injection, schedule: Q01DX009 (ip), vehicle: Klucel (hydroxypropylcellulose) (HPC)",107 % of control
same,T/C,"dose: 7.5 mg/kg/injection, schedule: Q04DX003 (ip), vehicle: Klucel (hydroxypropylcellulose) (HPC)",240 % of control
same,T/C,"dose: 8.0 mg/kg/injection, schedule: Q04DX003 (ip), vehicle: Klucel (hydroxypropylcellulose) (HPC)",272 % of control
same,T/C,[5],272 % of control
O=[N+]([O-])/C=C/c1ccc([N+](=O)[O-])cc1,T/C,[6],118 % of control
same,T/C,[7],118 % of control
CO[C@H]1C[C@H](O[C@H]2CC[C@]3(C=O)[C@H]4CC[C@]5(C)[C@@H](C6=CC(=O)OC6)CC[C@]5(O)[C@@H]4CC[C@]3(O)C2)O[C@H](C)[C@H]1O[C@@H]1O[C@H](CO[C@@H]2O[C@H](CO)[C@@H](O)[C@H](O)[C@H]2O)[C@@H](O)[C@H](O)[C@H]1O,T/C,"dose: 0.5 mg/kg/injection, schedule: Q01DX010 (ip), vehicle: saline",115 % of control
same,T/C,"dose: 1.0 mg/kg/injection, schedule: Q01DX010 (ip), vehicle: saline",110 % of control
CC(C)(C)NCC(CN(CC(CNC(C)(C)C)C(=O)c1ccccc1)C(C)(C)C)C(=O)c1ccccc1 (stereo not drawn),T/C,[5],104 % of control
same,T/C,"dose: 25.0 mg/kg/injection, schedule: Q04DX003 (ip), vehicle: Klucel (hydroxypropylcellulose) (HPC)",104 % of control
same,T/C,"dose: 50.0 mg/kg/injection, schedule: Q04DX003 (ip), vehicle: Klucel (hydroxypropylcellulose) (HPC)",112 % of control
CC1(C)N=C(N)N=C(N)N1c1cccc(OCCOc2ccc(NC(=O)CBr)cc2)c1,T/C,"dose: 50.0 mg/kg/injection, schedule: Q01DX009 (ip), vehicle: saline sonified",116 % of control
same,T/C,"dose: 100.0 mg/kg/injection, schedule: Q01DX009 (ip), vehicle: saline sonified",111 % of control
OC(Cc1ccnc2ccccc12)C(Cl)(Cl)Cl (stereo not drawn),T/C,[6],100 % of control
same,T/C,[3],100 % of control
same,T/C,[8],105 % of control
same,T/C,[7],100 % of control
same,T/C,[4],100 % of control
same,T/C,[9],100 % of control
same,T/C,[10],105 % of control
same,T/C,[11],100 % of control
same,T/C,[12],115 % of control
Nc1cc2c(c[n+](Cc3ccccc3)c3ccccc23)c2ccccc12,T/C,"dose: 3.13 mg/kg/injection, schedule: Q04DX003 (ip), vehicle: other",98 % of control
CCC(C(=O)OC)C1CCCCC1 (stereo not drawn),T/C,[3],107 % of control
same,T/C,[7],108 % of control
same,T/C,[4],111 % of control
same,T/C,[10],100 % of control
same,T/C,[11],103 % of control
same,T/C,[13],104 % of control
CC1(C)CCC23CCC4(C)C(CCC5C6(C)CCC(O)C(C)(C)C6CCC54C)C2C1OC3=O (stereo not drawn),T/C,"dose: 10.0 mg/kg/injection, schedule: Q01DX009 (ip), vehicle: Klucel (hydroxypropylcellulose) (HPC)",105 % of control
same,T/C,"dose: 20.0 mg/kg/injection, schedule: Q01DX009 (ip), vehicle: Klucel (hydroxypropylcellulose) (HPC)",119 % of control
same,T/C,"dose: 40.0 mg/kg/injection, schedule: Q01DX009 (ip), vehicle: Klucel (hydroxypropylcellulose) (HPC)",105 % of control
CCOC(=O)N1CCc2cc(OC)c(OC)cc2C1Cc1ccc(OC)c(OC)c1 (stereo not drawn),T/C,"dose: 50.0 mg/kg/injection, schedule: Q01DX005 (ip), vehicle: saline with Tween-80",92 % of control
same,T/C,"dose: 100.0 mg/kg/injection, schedule: Q01DX005 (ip), vehicle: saline with Tween-80",105 % of control
same,T/C,"dose: 200.0 mg/kg/injection, schedule: Q01DX005 (ip), vehicle: saline with Tween-80",92 % of control
O=C1Oc2ccccc2C(=O)/C1=C1/C=C(c2ccccc2)SS1,T/C,[2],90 % of control
same,T/C,[3],88 % of control
same,T/C,[4],90 % of control
S=C1SCCS1,T/C,"dose: 25.0 mg/kg/injection, schedule: Q01DX009 (ip), vehicle: saline with Tween-80",100 % of control
same,T/C,[2],95 % of control
same,T/C,[3],104 % of control
same,T/C,[1],91 % of control
CCOC(=O)c1c(OCCCc2ccc(F)cc2)cc2ccc3ccccc3c2c1OCCCc1ccc(F)cc1,T/C,[7],86 % of control
same,T/C,[10],87 % of control
same,T/C,[13],103 % of control
Nc1nc(SCCc2ccccc2)c2[nH]cnc2n1,T/C,[3],109 % of control
same,T/C,[7],104 % of control
same,T/C,[4],100 % of control
same,T/C,[10],100 % of control
same,T/C,[11],90 % of control
same,T/C,[13],104 % of control
CC(C)C(NC(=O)C1CCCN1C(=O)OCc1ccccc1)C(=O)O (stereo not drawn) (Cbz-Pro-Val-OH; configuration not given here),T/C,[7],104 % of control
same,T/C,[10],100 % of control
same,T/C,[13],100 % of control
CCOc1ccc2nc(S(N)(=O)=O)sc2c1,T/C,"dose: 100.0 mg/kg/injection, schedule: Q01DX009 (ip), vehicle: Klucel (hydroxypropylcellulose) (HPC)",114 % of control
same,T/C,[8],104 % of control
same,T/C,"dose: 200.0 mg/kg/injection, schedule: Q01DX009 (ip), vehicle: Klucel (hydroxypropylcellulose) (HPC)",114 % of control
same,T/C,[9],104 % of control
same,T/C,"dose: 400.0 mg/kg/injection, schedule: Q01DX009 (ip), vehicle: Klucel (hydroxypropylcellulose) (HPC)",109 % of control
same,T/C,[12],95 % of control
Oc1c(I)cc(Cl)c2cccnc12,T/C,"dose: 12.5 mg/kg/injection, schedule: Q01DX009 (ip), vehicle: Klucel (hydroxypropylcellulose) (HPC)",115 % of control
same,T/C,"dose: 25.0 mg/kg/injection, schedule: Q01DX009 (ip), vehicle: Klucel (hydroxypropylcellulose) (HPC)",115 % of control
same,T/C,"dose: 50.0 mg/kg/injection, schedule: Q01DX009 (ip), vehicle: Klucel (hydroxypropylcellulose) (HPC)",120 % of control
